Consider one compound from patent publication US20250243203A1, “NICOTINAMIDE- AND BENZAMIDE-BASED COMPOUNDS, CONJUGATES, AND COMPOSITIONS AS INHIBITORS OF TRANSLATIONAL- AND TRANSCRIPTIONAL-RELATED KINASES” (PURDUE RESEARCH FOUNDATION, priority 2022, published 2025).

The structures appear in SMILES notation. Where two headings read alike, the source gives them in different places. Bounds are passed on as bounds.

The target in data set [1] is T1, MER Proto-Oncogene tyrosine kinase (MERTK) (Homo sapiens, UniProt Q12866).
T1 construct: purchased Eurofins DiscoverX (KINOMEscan service)
T1 sequence (Q12866 21-999): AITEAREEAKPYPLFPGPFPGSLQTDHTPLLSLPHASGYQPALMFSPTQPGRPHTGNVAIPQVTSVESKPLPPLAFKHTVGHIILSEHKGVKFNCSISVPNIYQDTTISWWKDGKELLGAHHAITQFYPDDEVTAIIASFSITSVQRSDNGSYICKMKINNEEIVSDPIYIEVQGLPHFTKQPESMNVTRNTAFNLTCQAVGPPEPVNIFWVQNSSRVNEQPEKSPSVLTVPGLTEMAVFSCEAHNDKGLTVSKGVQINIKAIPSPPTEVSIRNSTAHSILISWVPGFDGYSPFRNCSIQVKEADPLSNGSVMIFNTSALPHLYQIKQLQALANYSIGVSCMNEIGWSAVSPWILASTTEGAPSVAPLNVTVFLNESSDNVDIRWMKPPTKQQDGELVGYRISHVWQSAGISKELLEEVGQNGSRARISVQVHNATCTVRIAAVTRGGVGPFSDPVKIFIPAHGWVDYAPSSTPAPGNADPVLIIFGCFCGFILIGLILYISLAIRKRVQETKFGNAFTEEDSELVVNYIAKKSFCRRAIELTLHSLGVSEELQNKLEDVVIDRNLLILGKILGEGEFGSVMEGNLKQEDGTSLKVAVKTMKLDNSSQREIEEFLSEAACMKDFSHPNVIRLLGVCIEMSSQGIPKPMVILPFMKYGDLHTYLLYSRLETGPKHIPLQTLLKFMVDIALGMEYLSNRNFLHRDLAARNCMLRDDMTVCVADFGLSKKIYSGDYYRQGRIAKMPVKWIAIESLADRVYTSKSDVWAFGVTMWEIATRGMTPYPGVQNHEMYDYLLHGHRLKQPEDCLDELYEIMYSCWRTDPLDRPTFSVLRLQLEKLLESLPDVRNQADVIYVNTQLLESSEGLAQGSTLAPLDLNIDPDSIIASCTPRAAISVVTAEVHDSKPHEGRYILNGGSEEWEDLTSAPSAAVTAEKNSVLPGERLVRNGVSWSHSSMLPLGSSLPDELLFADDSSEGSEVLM
The data set is described as follows: KINOMEscan competition binding assay (Eurofins DiscoverX), MERTK. The procedure: The affinity of several compounds hereof having a substituent on the imidazo[1,2-b]pyridazine moiety at position-6, wherein the substituent comprised one or more ring moieties was evaluated with respect to two TAM kinases: AXL and MERTK. Perhaps more specifically, the equilibrium dissociation constant between each of compounds HSND141, compound HSND149, HSND150, HSND151, and HSND80 and AXL and MERTK was evaluated at Eurofins DiscoverX using KINOMEscan™, which is a competition binding assay that quantitively measured the ability of each tested compound to displace an immobilized, active-site directed ligand. The assay uses DNA-tagged kinase, an immobilized ligand, and the test compound. Quantitative polymerase chain reaction (PCR) of the DNT tag was then used to measure the ability of the tested compound to displace the immobilized ligand.

The subject of data set [2] is multiple myeloma cell lines. The data set is described as follows: Inhibition of multiple myeloma cell lines. Conditions: FIG. 4. It is filed as cell-based, human.
Data set [3] is described as follows: Oral bioavailability study in mice. In kind it is in vivo, Male CD1 Mice. Conditions: 10 mg/Kg, FIG. 5. On the procedure:
The bioavailability and Cmax of the ring-6-substituted imidazo[1,2-b]pyridazine compounds were also assessed.
Briefly, compounds were dissolved in 10% dimethylsulfoxide (DMSO)/90% (20% HP-β-CD in water (w/w)). Male CD1 Mice (n=3) were dosed orally with 10 mg/Kg of each compound (HSND80, HSND41, HSND101, HSND102, HSND141, and HSND156). Blood was sampled at 0.25 hours, 0.5 hour, 1 hour, 2 hours, 4 hours, 8 hours, and 24 hours post dose, and the concentration of compound in blood at each specific time point was determined via liquid chromatography-mass spectrometry (LC-MS) (high-performance liquid chromatography (HPLC) instrument: Shimadzu; MS instrument: AB API 5500 LC/MS/MS; Column: HALO C18 90 A 2.7 μm (30*2.1 mm); Mobile phase A: 5% Acetonitrile in Water (0.1% Formic acid); Mobile phase B: 95% Acetonitrile in Water (0.1% Formic acid)).

Data set [4] deals with 4T1 (breast) syngeneic tumor. Description: 4T1 in vivo tumor reduction. Also on record: species or system Female Balb-C mice. Particulars: 15 mg/kg orally QD, 5 days on 2 days off. On the procedure:
0.5×10^6 4T1 cells were injected subcutaneously (SQ) into the right flank of Female Balb-C mice. Each group consisted of 5 tumor-bearing mice. 7 days after tumor implantation, mice were dosed orally QD with vehicle control (5% DMSO, 40% PEG300, 5% tween 80, 50% water) or HSND80 (15 mg/Kg). Mice were dosed 5 days on and 2 days off (drug holiday). Tumors were measured every other day (L, W, H) to give tumor volume in mm^3.

For `C[C@@H]1CN(c2ccc3ncc(C#Cc4cncc(C(=O)Nc5ccc(CN6CCN(C)CC6)c(C(F)(F)F)c5)c4)n3n2)C[C@H](C)O1` [HSND80, 5-((6-((2S,6R)-2,6-Dimethylmorpholino)imidazo[1,2-b]pyridazin-3-yl)ethynyl)-N-(4-((4-methylpiperazin-1-yl)methyl)-3-(trifluoromethyl)phenyl)nicotinamide], the dissociation constant (Kd) in data set [1] (FIG. 7A, replicate 1, read-out: Kd MERTK, replicate 1) is 1.6 nM; in data set [1] (FIG. 7B, replicate 2, read-out: Kd MERTK, replicate 2) it was 2.1 nM; in data set [1] (Table 1, DiscoverX Eurofins, read-out: Kd MERTK) it was less than 0.17 nM. Also, the “inhibition of multiple myeloma cell lines” value in data set [2] is “potently inhibited”. For the same compound, the “bioavailability” value in data set [3] is on record as “more bioavailablity than unsubstituted morpholine (compound HSND41)”. Moreover, the “reduction of growth of 4T1 tumor” value in data set [4] is listed as roughly 60%.

For orientation: Kd means the constant that tells how readily two partners part at equilibrium.
